Results published in ChEMBL document CHEMBL5303573, “Mapping human microbiome drug metabolism by gut bacteria and their genes” (Nature, 2019).

Legend:
[1] = The drug is tested on Bifidobacterium longum subsp. Infantis strain: CCUG52486 for biotransformation. The drug concentrations were measured before and after a 12-h incubation by liquid-chromatography-coupled mass spectrometry (LC–MS); settings: 2 µM
[2] = The drug is tested on Alistipes indistinctus strain: DSM22520 for biotransformation. The drug concentrations were measured before and after a 12-h incubation by liquid-chromatography-coupled mass spectrometry (LC–MS); settings: 2 µM
[3] = The drug is tested on Bacteroides dorei strain: DSM17855 for biotransformation. The drug concentrations were measured before and after a 12-h incubation by liquid-chromatography-coupled mass spectrometry (LC–MS); settings: phocaeicola dorei, 2 µM
[4] = The drug is tested on Bacteroides fragilis strain: HMW610 for biotransformation. The drug concentrations were measured before and after a 12-h incubation by liquid-chromatography-coupled mass spectrometry (LC–MS); settings: 2 µM
[5] = The drug is tested on Bacteroides pectinophilus strain: ATCC43243 for biotransformation. The drug concentrations were measured before and after a 12-h incubation by liquid-chromatography-coupled mass spectrometry (LC–MS); settings: 2 µM
[6] = The drug is tested on Bacteroides vulgatus strain: ATCC8482 for biotransformation. The drug concentrations were measured before and after a 12-h incubation by liquid-chromatography-coupled mass spectrometry (LC–MS); settings: phocaeicola vulgatus, 2 µM
[7] = The drug is tested on Parabacteroides merdae strain: ATCC43184 for biotransformation. The drug concentrations were measured before and after a 12-h incubation by liquid-chromatography-coupled mass spectrometry (LC–MS); settings: 2 µM
[8] = The drug is tested on Blautia hansenii strain: DSM20583 for biotransformation. The drug concentrations were measured before and after a 12-h incubation by liquid-chromatography-coupled mass spectrometry (LC–MS); settings: 2 µM
[9] = The drug is tested on Clostridium asparagiforme strain: DSM15981 for biotransformation. The drug concentrations were measured before and after a 12-h incubation by liquid-chromatography-coupled mass spectrometry (LC–MS); assay type: ADME; parameters: dose 2 uM, timepoint 0 vs 12 hours; settings: enterocloster asparagiformis, 2 µM
[10] = The drug is tested on Clostridium ramosum strain: DSM1402 for biotransformation. The drug concentrations were measured before and after a 12-h incubation by liquid-chromatography-coupled mass spectrometry (LC–MS); settings: thomasclavelia ramosa, 2 µM
[11] = The drug is tested on Clostridium symbiosum strain: ATCC14940 for biotransformation. The drug concentrations were measured before and after a 12-h incubation by liquid-chromatography-coupled mass spectrometry (LC–MS); settings: 2 µM
[12] = The drug is tested on Eubacterium ventriosum strain: ATCC27560 for biotransformation. The drug concentrations were measured before and after a 12-h incubation by liquid-chromatography-coupled mass spectrometry (LC–MS); assay type: ADME; parameters: dose 2 uM, timepoint 0 vs 12 hours; settings: 2 µM
[13] = The drug is tested on Ruminococcus torques strain: ATCC27756 for biotransformation. The drug concentrations were measured before and after a 12-h incubation by liquid-chromatography-coupled mass spectrometry (LC–MS); assay type: ADME; parameters: dose 2 uM, timepoint 0 vs 12 hours; settings: 2 µM
[14] = The drug is tested on Enterobacter cancerogenus strain: ATCC35316 for biotransformation. The drug concentrations were measured before and after a 12-h incubation by liquid-chromatography-coupled mass spectrometry (LC–MS); settings: 2 µM
[15] = The drug is tested on Escherichia coli strain: BW25113 for biotransformation. The drug concentrations were measured before and after a 12-h incubation by liquid-chromatography-coupled mass spectrometry (LC–MS); settings: 2 µM
[16] = bacteroides fragilis, 12 h, 2 µM
Description: The drug is tested on Bacteroides fragilis strain: DS-208 for biotransformation. The drug concentrations were measured before and after a 12-h incubation by liquid-chromatography-coupled mass spectrometry (LC–MS)

[17] = bacteroides intestinalis, 12 h, 2 µM
Description: The drug is tested on Bacteroides intestinalis strain: DSM17393 for biotransformation. The drug concentrations were measured before and after a 12-h incubation by liquid-chromatography-coupled mass spectrometry (LC–MS)

[18] = bacteroides stercoris, 12 h, 2 µM
Description: The drug is tested on Bacteroides stercoris strain: ATCC43183 for biotransformation. The drug concentrations were measured before and after a 12-h incubation by liquid-chromatography-coupled mass spectrometry (LC–MS)

[19] = anaerostipes sp., 12 h, 2 µM
Description: The drug is tested on Anaerostipes sp. strain: fecal isolate for biotransformation. The drug concentrations were measured before and after a 12-h incubation by liquid-chromatography-coupled mass spectrometry (LC–MS)

[20] = enterocloster bolteae, 12 h, 2 µM
Description: The drug is tested on Clostridium bolteae strain: ATCCBAA-613 for biotransformation. The drug concentrations were measured before and after a 12-h incubation by liquid-chromatography-coupled mass spectrometry (LC–MS)

Measured: Bacterial Biotransformation

O=C(NCc1ccccc1)OCCO [BURAMATE]
Compound NOT metabolized: all assays above
